Measurements reported in patent publication US20120129152A1, “Diagnostic method for the prediction of the development of and control over the effectiveness of treatment of cardiovascular illnesses” (priority 2010, published 2012).

Key:
Assay type in all cases: in vivo, human
[1] = Blood serum lipid complex (lipidogram) of treated patients
[2] = tested on: cytomegalovirus; experiment: IIF of patients' blood immunocytes: cells infected with cytomegalovirus
Method: (§1) The task set is addressed through a diagnostic method for the prediction of the development and control of the effectiveness of the treatment of cardiovascular, in which patient tissue samples are taken (immunocytes and erythrocytes from venous and capillary blood, smears and prints from atherosclerotic plaques after surgical intervention, and cells from urinary and salivary sediment), microdrugs are prepared, specific anti-viral immunoglobulins are processed (for types 1 and 2 herpes viruses, the cytomegalovirus, the herpes Zoster virus, the Epstein-Barr virus, the herpes 6 virus, or the combinations thereof), the number of cells infected by two or more viruses before the beginning of treatment, during treatment, and after treatment are determined with the application of anti-viral therapy, and the dynamic of the change in the number of infected cells and their interrelationships are established: if the number of cells infected by two or more viruses, among which cytomegalovirus must be found, exceeds 50±10% in patients with cardiovascular disease, a diagnostic conclusion of the threat of atherosclerosis complications such as myocardial infarction and stroke, as well as of complications such as arrhythmia, thrombic embolisms, severe left ventricular failure, repeated myocardial infarction, cardiogenic shock, and a high possibility of a fatal result; the method can also be used in patients with cardiovascular diseases after treatment through a method of a combination of traditional methods and the use of anti-viral drugs and a change is seen in the percentage of infected cells after treatment if the number of cells infected by two or more viruses decreases by more than 20±10% in repeat diagnostics, the treatment is considered successful, whereas if a decrease by 20±10% in the number of cells infected by cytomegalovirus and any other aforementioned virus in repeat diagnostics is not seen, a conclusion is drawn on the ineffectiveness of the therapy applied in that period and the need to change the antiviral therapy scheme.

[3] = tested on: Epstein-Barr virus; experiment: IIF of patients' blood immunocytes: cells infected with Epstein-Barr virus
Method: as §1

[4] = Hemodynamic indicators (tetrapolar rheography) of treated patient; settings: Example 1, after Valacyclovir with Nitrosorbidum and Corinfar
[5] = Electrocardiogram indices of treated patient; settings: Example 1, after Valacyclovir with Nitrosorbidum and Corinfar
[6] = Clinical condition of treated patient with ischemic heart disease
[7] = tested on: HSV-1; experiment: IIF of patients' blood immunocytes: cells infected with herpes type 1 virus
From the text: […]

[8] = Free-radical acidization of lipids, serum indicators of treated patient; settings: Example 1, after Valacyclovir with Nitrosorbidum and Corinfar
[9] = Example 2, after Valacyclovir 3 courses of 7 days, before 50% of cells infected

Question: Which total cholesterol ([1]; Example 2, patient two, after six months of simvastatin 10 mg/day (with metoprolol, enalapril, aspirin), goal indicator 5.0 mmoles/l) does the source give for `CCC(C)(C)C(=O)O[C@H]1C[C@@H](C)C=C2C=C[C@H](C)[C@H](CC[C@@H]3C[C@@H](O)CC(=O)O3)[C@H]21` [simvastatin] here?
Answer: 4.9 mmoles/1

Question: What about the triglycerides ([1]; Example 2, after six months of simvastatin 10 mg/day) of the same compound?
Answer: 1.55 mmol/L

Question: What about the total cholesterol ([1]; Example 3, patient, after five months of simvastatin 10 mg/day (with metoprolol, aspirin), goal indicator 5.0 mmoles/l) of the same compound?
Answer: 5.6 mmoles/1

Question: What about the triglycerides ([1]; Example 3, after five months of simvastatin 10 mg/day) of the same compound?
Answer: 2.55 mmol/L

Question: And the total cholesterol ([1]; Example 4, patient one, after six months of Zocor 20 mg/day (with Corvitol, Renitec, aspirin), goal indicator 4.0 mmoles/l)?
Answer: 3.9 mmoles/1

Question: What about the triglycerides ([1]; Example 4, after six months of Zocor 20 mg/day) of the same compound?
Answer: 1.4 mmol/L

Question: Which “blood immunocytes infected with CMV (IIF)” value ([2]; Example 1, after Valacyclovir with Nitrosorbidum and Corinfar, before 60% of cells infected) does the source give for `CC(C)[C@H](N)C(=O)OCCOCn1cnc2c(=O)[nH]c(N)nc21` [Valacyclovir] here?
Answer: 20%

Question: What about the “CMV in the blood immunocytes (IIF)” value [2, 9] of the same compound?
Answer: not present

Question: What about the “immunocytes infected with cytomegalovirus (IIF)” value ([2]; Example 3, after Valacyclovir 5 courses of 7 days, before 50% of cells infected) of the same compound?
Answer: 10%

Question: And the “cytomegalovirus antigens in immunocytes, repeat IIF study” value ([2]; Example 4, two months after combination therapy Valacyclovir with immunoglobulin and Laferobion, before 30% of cells infected)?
Answer: did not discover antigens

Question: What about the “blood immunocytes infected with EBV (IIF)” value ([3]; Example 1, after Valacyclovir with Nitrosorbidum and Corinfar, before 70% of cells infected) of the same compound?
Answer: 50%

Question: What about the “blood immunocytes infected with EBV (IIF)” value [3, 9] of the same compound?
Answer: 10%

Question: What about the “Epstein-Barr virus antigens in immunocytes, repeat IIF study” value ([3]; Example 4, two months after combination therapy Valacyclovir with immunoglobulin and Laferobion, before 50% of cells infected) of the same compound?
Answer: did not discover antigens

Question: What about the “total cholesterol in blood serum” value ([1]; Example 1, patient one, after Valacyclovir 1.0 g three times a day with Nitrosorbidum and Corinfar, before 6.71) of the same compound?
Answer: 3.26 mmol/L

Question: And the cholesterol/HDL ([1]; Example 1, after Valacyclovir with Nitrosorbidum and Corinfar, before 1.17)?
Answer: 1.20 mmol/L

Question: And the LDL ([1]; Example 1, after Valacyclovir with Nitrosorbidum and Corinfar, before 1.55)?
Answer: 0.47 mmol/L

Question: And the “triglycerides in blood serum” value ([1]; Example 1, after Valacyclovir with Nitrosorbidum and Corinfar, before 3.4)?
Answer: 1.04 mmol/L

Question: What about the cholesterol/LDL ([1]; Example 1, after Valacyclovir with Nitrosorbidum and Corinfar, before 3.99) of the same compound?
Answer: 3.68 mmol/L

Question: What about the atherogenesis index ([1]; Example 1, after Valacyclovir with Nitrosorbidum and Corinfar, before 4.74) of the same compound?
Answer: 3.38

Question: And the “b-lipoproteins in blood serum” value ([1]; Example 1, after Valacyclovir with Nitrosorbidum and Corinfar, before 770)?
Answer: 310 conditional units

Question: What about the triglycerides ([1]; Example 2, after Valacyclovir 1.0 g 3×/day for 3 courses of 7 days, before 1.55) of the same compound?
Answer: 1.3 mmol/L

Question: What about the total cholesterol ([1]; Example 2, after Valacyclovir 1.0 g 3×/day for 3 courses of 7 days, before 4.9) of the same compound?
Answer: 4.7 mmoles/1

Question: And the total cholesterol ([1]; Example 3, after Valacyclovir 1 g 3×/day for 5 courses of 7 days with 7-day intervals, before 5.6)?
Answer: 4.9 mmol/L

Question: What about the triglycerides ([1]; Example 3, after Valacyclovir 1 g 3×/day for 5 courses of 7 days, before 2.55) of the same compound?
Answer: 1.95 mmol/L

Question: What about the triglycerides ([1]; Example 4, after combination therapy Valacyclovir with immunoglobulin and Laferobion, before 1.4) of the same compound?
Answer: 1.3 mmoles/1

Question: What about the total cholesterol ([1]; Example 4, after combination therapy: Valacyclovir 1.0 g 3 times a day, three courses of seven days, with immunoglobulin and Laferobion, before 3.9) of the same compound?
Answer: 1.5 mmoles/1

Question: And the “capacity of the left ventricle” value ([4]; before 2.02)?
Answer: 2.29 W

Question: And the energy loss ([4]; before 15.96)?
Answer: 10.37 conditional units

Question: And the specific peripheral resistance ([4]; before 74.53)?
Answer: 65.97 conditional units

Question: What about the flow rate ([4]; before 126.5) of the same compound?
Answer: 169.71 mL/s

Question: What about the “total peripheral vascular resistance” value ([4]; before 2917.9) of the same compound?
Answer: 2673.6 dyn s cm^−5

Question: And the “NST on the electrocardiogram” value ([5]; before 10.0)?
Answer: 0

Question: And the “SST on the electrocardiogram” value ([5]; before 11.0)?
Answer: 0

Question: And the “T index on the electrocardiogram” value ([5]; before 35.0)?
Answer: 0

Question: And the “patient's condition” value ([6]; Example 1, within seven weeks, Valacyclovir with Nitrosorbidum and Corinfar)?
Answer: improved significantly

Question: And the “angina pain and shortness of breath” value ([6]; Example 1, within seven weeks, Valacyclovir with Nitrosorbidum and Corinfar, nitroglycerine tablets not used)?
Answer: not present

Question: What about the “lipidogram, peroxide acidization of lipids, electrocardiography and tetrapolar rheography indicators” value ([6]; summary of the examples, standard treatment scheme combined with Valacyclovir) of the same compound?
Answer: normalized

Question: What about the “immunocytes infected with HSV-1 (IIF)” value ([7]; Example 3, after Valacyclovir 5 courses of 7 days, before 70% of cells infected) of the same compound?
Answer: 30%

Question: And the “herpes type 1 virus antigens in immunocytes, repeat IIF study” value ([7]; Example 4, two months after combination therapy Valacyclovir with immunoglobulin and Laferobion, before 60% of cells infected)?
Answer: did not discover antigens

Question: What about the triethynoid conjugates ([8]; before 0.23) of the same compound?
Answer: 0.14 mcmol/ml

Question: What about the serum malondialdehyde ([8]; before 0.50) of the same compound?
Answer: 0.31 mcmol/ml

Question: And the diethynoid conjugates ([8]; before 1.332)?
Answer: 0.70 mcmol/ml

Question: What about the a-tocopherol content ([8]; before 2.69) of the same compound?
Answer: 4.32 mcmol/ml

Question: What about the glutathione reductase activity ([8]; before 12.4) of the same compound?
Answer: 22.0 mcmol/l h
